This note sets out measurements from DBAASP.

In brackets after ≈: the same amount, converted by molar mass. Several values for one entry are separate records, joined by “and”; a condition that tells them apart may be missing. Equal entries are not always repeated.

Common to all, as to assay: ≥ marks a high value that may be exact or a test limit, other limits are often not marked, values filed in µg/mL are converted to µM
Assay [1] concerns Bacillus subtilis DELTA.
The test system of assay [2] is Candida albicans ATCC 200955.
Assay [3] concerns Candida parapsilosis.
Assay [4] deals with Enterococcus faecium ATCC 700221.
The test system of assay [5] is Escherichia coli ATCC 25922.
The test system of assay [6] is Escherichia coli DH5alpha.
The test system of assay [7] is Pseudomonas aeruginosa ATCC 27853.
Assay [8] has as its system Staphylococcus aureus ATCC 33591.
The test system of assay [9] is Zymomonas mobilis ATCC 10988.
Assay [10] deals with Streptococcus pneumoniae BCRC 10794.
For assay [11], the system named is Bacillus cereus AS1.126.
Assay [12] concerns Bacillus cereus.
The test system of assay [13] is Bacillus subtilis.
The test system of assay [14] is Candida albicans CCM 8186.
In assay [15] the test system is Candida albicans CMCC 98001.
For assay [16], the system named is Candida albicans PCM 2566.
The test system of assay [17] is Candida glabrata CCM 8270.
In assay [18] the test system is Candida krusei CCM 8271.
Assay [19] deals with Candida parapsilosis CCM 8260.
The subject of assay [20] is Candida tropicalis CCM 8264.
Assay [21] relates to Enterobacter cloacae CGMCC 1.58.
Assay [22] has as its system Enterococcus faecalis CGMCC 1.595.
Assay [23] deals with Enterococcus faecium CGMCC 1.2334.
The test system of assay [24] is Escherichia coli AS1.349.
Assay [25] concerns Escherichia coli PCM 2057.
Assay [26] deals with Fusobacterium nucleatum CGMCC 1.2526.
For assay [27], the system named is Klebsiella pneumoniae subsp. pneumoniae CGMCC 1.176.
Assay [28] relates to Lactobacillus acidophilus CGMCC 1.1854.
In assay [29] the test system is Proteus mirabilis CICC 22931.
The subject of assay [30] is Pseudomonas aeruginosa CGMCC 1.860.
In assay [31] the test system is Pseudomonas aeruginosa PCM 499.
Assay [32] relates to Staphylococcus aureus AS1.72.
Assay [33] has as its system Staphylococcus aureus PCM 2054.
Assay [34] deals with Staphylococcus aureus PMC 1650.
In assay [35] the test system is Staphylococcus epidermidis CICC 23664.
Assay [36] relates to Staphylococcus epidermidis PCM 2118.
Assay [37] concerns Staphylococcus epidermidis PCM 521.
Assay [38] relates to Streptococcus mutans CGMCC 1.2500.
Assay [39] deals with Streptococcus salivarius CGMCC 1.2498.
The subject of assay [40] is Streptococcus sanguinis CGMCC 1.2497.
Assay [41] deals with Bacillus subtilis ATCC 6633.
In assay [42] the test system is Escherichia coli DSM 1103.
For assay [43], the system named is Kocuria rhizophila DSM 348.
The subject of assay [44] is Micrococcus luteus DSM 1790.
For assay [45], the system named is Staphylococcus aureus DSM 1104.
In assay [46] the test system is Klebsiella pneumoniae ATCC 13883.
For assay [47], the system named is Listeria monocytogenes ATCC 35152.
The subject of assay [48] is Staphylococcus aureus ATCC 25923.
In assay [49] the test system is Salmonella enterica subsp. enterica serovar Typhi DMST 22842.
Assay [50] relates to Staphylococcus epidermidis ATCC 12228.

Turning to `CC[C@H](C)[C@H](NC(=O)[C@H](Cc1ccccc1)NC(=O)[C@H](CCCCN)NC(=O)[C@H](CC(C)C)NC(=O)[C@H](CC(C)C)NC(=O)CN)C(=O)N[C@@H](CCCCN)C(=O)N[C@@H](CCCCN)C(=O)N[C@@H](CC(C)C)C(=O)N[C@@H](CC(C)C)C(N)=O` [GLLKFIKKLL], the MIC in [1] was 25.6 µM (≈ 30 µg/mL); in assay [2], 9.5 µM (≈ 11.1 µg/mL); in [3] it was at least 34.1 µM; in [4], 9.5 µM (≈ 11.1 µg/mL); in [5], 9.5 µM (≈ 11.1 µg/mL); in assay [6], at least 256 µM. For the same molecule, the MIC in assay [7] worked out at 28.4 µM (≈ 33.3 µg/mL); in [8], 9.5 µM (≈ 11.1 µg/mL); in assay [9], 5.97 µM (≈ 6.99 µg/mL).

Take `CC[C@H](C)[C@H](NC(C)=O)C(=O)N[C@@H](Cc1cnc[nH]1)C(=O)NCC(=O)N[C@@H](CC(C)C)C(=O)N[C@H](C(N)=O)C(C)C` [IHGLV]: in [10], the MIC was at least 186 µM.

For `CC[C@H](C)[C@H](N)C(=O)N[C@@H](CCCCN)C(=O)N[C@@H](CCCCN)C(=O)N[C@H](C(=O)N[C@@H](CC(C)C)C(=O)N[C@@H](CO)C(=O)N[C@@H](CCCCN)C(=O)N[C@H](C(=O)N[C@@H](CCCCN)C(=O)N[C@@H](CCCCN)C(=O)N[C@@H](CC(C)C)C(=O)N[C@@H](CC(C)C)C(=O)N[C@@H](CCCCN)C(N)=O)[C@@H](C)CC)[C@@H](C)CC` [IKKILSKIKKLLK], the MIC was 6.25 µM (≈ 9.7 µg/mL) in assay [11]; at least 32.2 µM in assay [12]; 5.02 µM (≈ 7.8 µg/mL) in assay [13]; 20.2 µM (≈ 31.3 µg/mL) in assay [14]; 6.25 µM (≈ 9.7 µg/mL) in assay [15]; at least 32.2 µM in assay [16]. Moreover, the MIC was 20.2 µM and 20.1 µM in [17]; 5.02 µM and 8.05 µM in assay [18]; 5.02 µM and 8.05 µM in assay [19]; 1.29 µM (≈ 2 µg/mL) in assay [20]; at least 100 µM in assay [21]; 3.13 µM (≈ 4.86 µg/mL) in assay [22]. Further, the minimum inhibitory concentration (MIC) in [23] is 5 µM (≈ 7.76 µg/mL); in assay [24], 3.13 µM (≈ 4.86 µg/mL); in assay [25], at least 80.5 µM; in assay [26], 4.69 µM (≈ 7.28 µg/mL); in [27], at least 100 µM; in [28], 3.13 µM (≈ 4.86 µg/mL). For the same molecule, the MIC in assay [29] is at least 100 µM; in assay [30], 6.25 µM (≈ 9.7 µg/mL); in [31] it was 16.1 µM (≈ 25 µg/mL); in [32] it was 5 µM (≈ 7.76 µg/mL); in assay [33] it was at least 64.4 µM; in assay [34] it was at least 32.2 µM. The MIC was 4.69 µM (≈ 7.28 µg/mL) in [35]; 5.02 µM and 4.02 µM in assay [36]; 4.02 µM (≈ 6.25 µg/mL) in [37]; 3.13 µM (≈ 4.86 µg/mL) in [38]; 6.25 µM (≈ 9.7 µg/mL) in assay [39]; 6.25 µM (≈ 9.7 µg/mL) in assay [40].

Take `CC[C@H](C)[C@H](NC(=O)[C@H](CCCCN)NC(=O)CNC(=O)[C@H](C)NC(=O)[C@@H](NC(=O)[C@H](CCCCN)NC(=O)[C@H](C)NC(=O)[C@@H](NC(=O)[C@H](CCCCN)NC(=O)CNC(=O)[C@H](C)NC(=O)[C@@H](NC(=O)[C@H](CCCCN)NC(=O)[C@H](C)NC(=O)[C@@H](NC(=O)[C@H](CCCCN)NC(=O)CNC(=O)[C@H](C)NC(=O)[C@@H](NC(=O)[C@@H](N)CCCCN)[C@@H](C)CC)[C@@H](C)CC)[C@@H](C)CC)[C@@H](C)CC)[C@@H](C)CC)C(=O)N[C@@H](C)C(=O)O` [KIAGKIAKIAGKIAKIAGKIA]: the MIC in assay [41] was 3.88 µM (≈ 8 µg/mL); in [6], 7.75 µM (≈ 16 µg/mL); in assay [42] it was 3.88 µM (≈ 8 µg/mL); in assay [43] it was at least 62 µM; in assay [44] it was 7.75 µM (≈ 16 µg/mL); in [45], at least 62 µM.

For `CC(C)C[C@H](NC(=O)[C@@H](NC(=O)[C@H](CCC(N)=O)NC(=O)[C@H](CCCCN)NC(=O)[C@H](Cc1cnc[nH]1)NC(=O)[C@H](CC(C)C)NC(=O)[C@H](C)NC(=O)[C@@H](NC(=O)[C@H](CC(C)C)NC(=O)[C@H](CCCCN)NC(=O)[C@H](CC(C)C)NC(=O)[C@@H](N)CCCCN)C(C)C)C(C)C)C(N)=O` [KLKLVALHKQVL], the MIC turned out to be 10.8 µM (≈ 15 µg/mL) in assay [5]; 18 µM (≈ 25 µg/mL) in assay [46]; 14.4 µM (≈ 20 µg/mL) in [47]; 18 µM (≈ 25 µg/mL) in assay [7]; 7.2 µM (≈ 9.99 µg/mL) in assay [48].

As for `CC(C)[C@H](NC(=O)CNC(=O)[C@@H](N)CC(N)=O)C(=O)N[C@@H](CCC(N)=O)C(=O)N1CCC[C@H]1C(=O)N[C@@H](CCCCN)C(=O)N[C@@H](Cc1ccc(O)cc1)C(=O)N[C@@H](CCCN=C(N)N)C(=O)N[C@@H](Cc1c[nH]c2ccccc12)C(=O)N[C@@H](Cc1c[nH]c2ccccc12)C(=O)N[C@@H](CCCN=C(N)N)C(=O)N[C@@H](Cc1c[nH]c2ccccc12)C(=O)N[C@@H](Cc1c[nH]c2ccccc12)C(=O)N[C@@H](CCCN=C(N)N)C(=O)N[C@@H](CCCN=C(N)N)C(=O)N[C@@H](Cc1c[nH]c2ccccc12)C(=O)N[C@@H](Cc1c[nH]c2ccccc12)C(=O)O` [NGVQPKYRWWRWWRRWW], the MIC is 18.1 µM (≈ 46 µg/mL) in assay [5], at least 35.7 µM in assay [49], above 35.7 µM in [48] and 9.03 µM (≈ 23 µg/mL) in [50].
